Laboratory results: ChEMBL document CHEMBL1158738, “Constituents of the leaves and twigs of Calyptranthes pallens collected from an experimental plot in Southern Florida” (J Nat Prod, 2005)
In brackets after ≈: the same amount, converted by molar mass.

Columns and labels:
[1] = Cytotoxicity against HUVEC; assay type: cell-based; conditions: human, HUVEC cells; read-out: ED50 (the source's name)
Lu1 = experiment: Cytotoxicity against human Lu1 cells; assay type: functional; conditions: read-out: ED50 (the source's name)
KB = experiment: Cytotoxicity against human KB cells; assay type: functional; conditions: read-out: ED50 (the source's name)
MCF7 = experiment: Cytotoxicity against human MCF7 cells; assay type: functional; conditions: read-out: ED50 (the source's name)
LNCaP = experiment: Cytotoxicity against human LNCAP cells; assay type: functional; conditions: read-out: ED50 (the source's name)
[2] = Cytotoxicity against human telomerase reverse transcriptase human RPE1 cells; assay type: functional, TERT-RPE1; conditions: RPE-1, read-out: ED50 (the source's name)

| Structure (SMILES) | CC50 [1] [µg/mL] | EC50 (Lu1) [µg/mL] | EC50 (KB) [µg/mL] | EC50 (MCF7) [µg/mL] | EC50 (LNCaP) [µg/mL] | EC50 [2] [µg/mL] |
| --- | --- | --- | --- | --- | --- | --- |
| CCCC(=O)c1c(O)c(C)c(OC)c(Cc2c(O)c(C(=O)CCC)c(O)c(C)c2OC)c1O | 6.1 (≈ 13.2 µM) | 19.4 (≈ 42.1 µM) | 2.7 (≈ 5.86 µM) | 7.3 (≈ 15.9 µM) | 6.6 (≈ 14.3 µM) |  |
| CC1=CC[C@]2(C(=O)O)CC[C@]3(C)[C@H](CC[C@@H]4[C@@]5(C)CC[C@H](O)C(C)(C)[C@@H]5CC[C@]43C)[C@H]2[C@@H]1C | 10.4 (≈ 22.8 µM) | 12.9 (≈ 28.2 µM) | > 20 | 9.7 (≈ 21.2 µM) | 7.3 (≈ 16 µM) |  |
| COc1cc([C@@H]2c3cc(O)c(OC)cc3C[C@@H](C)[C@H]2C)ccc1O [ISOGUAIACIN] | 14.7 (≈ 44.8 µM) | 15.7 (≈ 47.8 µM) | 6.4 (≈ 19.5 µM) | 12.4 (≈ 37.8 µM) | 11.8 (≈ 35.9 µM) | > 20 |
